Legend:
human CDK4/cyclin D3 = target: T1, human CDK4/cyclin D3 (Homo sapiens, UniProt P11802); assay: Inhibition of CDK4/cyclin D retinoblastoma kinase activity (Ki; % inhibition); type: biochemical
T1 construct: made in house; host or cells: insect cells co-infected with baculovirus vectors
Method in brief: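 Insect-cell-expressed CDK4 with truncated cyclin D3 (1-264), 5 nM, phosphorylating His-tagged Rb fragment (386-928) with 25 μM [32/33P]ATP at pH 7.4, 30 °C, 20 min (60 min for tight binders). Filter capture, phosphorimager read; % inhibition at 30 nM compound, Ki from competitive or tight-binding fits.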

CDK2/cyclin A = target: T2, CDK2/cyclin A (Homo sapiens, UniProt P24941); assay: Inhibition of CDK2/cyclin A retinoblastoma kinase activity (Ki; % inhibition); type: biochemical
T2 construct: made in house; host or cells: CDK2: insect cells (baculovirus); cyclin A: E. coli
Method in brief: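 Radiometric filter assay of CDK2/proteolyzed cyclin A (baculovirus-expressed human CDK2, 10 or 19 nM) phosphorylating an Rb fragment with 25 μM [³²P/³³P]ATP in pH 7.4 HEPES, 2% DMSO, at 30 °C for 60 or 75 min under initial-rate conditions. Library compounds screened at 30 nM for % inhibition; apparent Ki from concentration series fit to competitive or tight-binding inhibition equations.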

HCT-116 cell line = assay: Inhibition of cell growth, MTT tetrazolium salt assay; type: cell-based
Method in brief: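 Cells in McCoy's 5A medium were given 4 h before compound addition in 0.5% (v/v) DMSO, then incubated 3–5 days at 37 °C, 5% CO2. After 4 h with 0.2 mg/mL MTT, DMSO-solubilized formazan was read at 540 nm; 50% and 90% growth-inhibitory concentrations came from semi-log plots against vehicle controls.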

[1] = HCT-116 cells, 0.25 μM compound

T1 sequence (P11802 whole entry): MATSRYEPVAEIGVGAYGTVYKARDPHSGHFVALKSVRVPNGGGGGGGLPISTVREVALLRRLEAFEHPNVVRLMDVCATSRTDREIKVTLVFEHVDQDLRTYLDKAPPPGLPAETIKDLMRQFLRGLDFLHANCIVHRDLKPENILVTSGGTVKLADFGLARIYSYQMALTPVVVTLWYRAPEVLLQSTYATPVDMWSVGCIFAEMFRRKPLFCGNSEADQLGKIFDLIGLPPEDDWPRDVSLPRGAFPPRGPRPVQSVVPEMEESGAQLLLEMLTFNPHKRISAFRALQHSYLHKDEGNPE
T1 sequence (P30281 1-264 partner limits assumed): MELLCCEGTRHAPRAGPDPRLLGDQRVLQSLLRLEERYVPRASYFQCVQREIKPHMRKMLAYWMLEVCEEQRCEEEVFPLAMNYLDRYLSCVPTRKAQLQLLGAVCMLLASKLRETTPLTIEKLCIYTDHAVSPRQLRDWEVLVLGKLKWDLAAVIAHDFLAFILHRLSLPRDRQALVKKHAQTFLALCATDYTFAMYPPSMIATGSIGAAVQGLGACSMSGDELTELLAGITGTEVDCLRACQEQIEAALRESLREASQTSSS

Row | CDK4 % Inhibition at 0.03 μM (human CDK4/cyclin D3; at 0.03 μM) | CDK2 % Inhibition at 0.03 μM (CDK2/cyclin A; at 0.03 μM) | CDK4 % Inhibition at 0.03 μM (human CDK4/cyclin D3; 0.03 μM compound) | CDK2 % Inhibition at 0.03 μM (CDK2/cyclin A; 0.03 μM compound) | SMILES | HCT-116 % Inhibition at 0.25 μM (HCT-116 cell line; HCT-116, at 0.25 μM) | HCT-116 % Inhibition at 0.1 μM (HCT-116 cell line; HCT-116 cells, 0.1 μM compound) | HCT-116 % Inhibition at 0.25 μM (HCT-116 cell line; [1]) | further results
1 | – | – | – | – | Nc1nc(Nc2ccc(C(=O)NCCNc3ccccc3)c(O)c2)sc1C(=O)c1c(F)cccc1F [Example D1, 4-[4-Amino-5-(2,6-difluoro-benzoyl)-thiazol-2-ylamino]-2-hydroxy-N-(2-phenylamino-ethyl)-benzamide] | – | – | – | Ki (human CDK4/cyclin D3; apparent Ki, CDK4/cyclin D3, Rb substrate): 17 nM; Ki (CDK2/cyclin A; apparent Ki, CDK2/cyclin A, Rb substrate): 9.4 nM; IC50 (HCT-116 cell line; Homo sapiens, HCT-116, 120 h, MTT, three to five days): 1000 nM
2 | 15% | 21% | – | – | Nc1nc(Nc2ccc(C(=O)Nc3ccc4ncccc4c3)cc2)sc1C(=O)c1c(F)cccc1F [Example G75] | 64% | – | – | –
3 | – | – | 6% | −21% | Nc1nc(Nc2ccc(C(=O)NCCc3c(Cl)cccc3Cl)cc2)sc1C(=O)c1c(F)cccc1F [Example G372] | – | 19% | 51% | –
4 | 32% | 4% | – | – | CN(C)C1CCN(C(=O)c2ccc(Nc3nc(N)c(C(=O)c4c(F)cccc4F)s3)cc2)C1 (stereo not drawn) [Example G29] | – | – | – | HCT-116 % Inhibition at 0.25 μM (HCT-116 cell line; HCT-116, at 0.25 μM, 0.25 µM): 55%
5 | – | – | 23% | 17% | CC(C)CCNC(=O)c1ccc(Nc2nc(N)c(C(=O)c3c(F)cccc3F)s2)cc1 [Example G247] | – | 12% | 54% | –
6 | – | – | 5% | −15% | C=CCN(C(=O)c1ccc(Nc2nc(N)c(C(=O)c3c(F)cccc3F)s2)cc1)C1CCCCC1 [Example G320] | – | 12% | 46% | –
7 | 38% | 60% | – | – | Nc1nc(Nc2ccc(C(=O)NCCNc3ccccc3)cc2)sc1C(=O)c1c(F)cccc1F [Example G134] | 89% | – | – | HCT-116 % Inhibition at 0.1 μM (HCT-116 cell line; HCT-116, at 0.1 μM): 1%
8 | – | – | 8% | 40% | Nc1nc(Nc2ccc(C(=O)Nc3cccc(O)c3)cc2)sc1C(=O)c1c(F)cccc1F [Example G378] | – | 27% | 60% | –
9 | 20% | 11% | – | – | CC(=O)NCCNC(=O)c1ccc(Nc2nc(N)c(C(=O)c3c(F)cccc3F)s2)cc1 [Example G142] | 46% | – | – | HCT-116 % Inhibition at 0.1 μM (HCT-116 cell line; HCT-116, at 0.1 μM): 0%

From patent US6720346B2, “Thiazole benzamide derivatives and pharmaceutical compositions for inhibiting cell proliferation” (Agouron Pharmaceuticals, Inc., priority 2001, dated 2004)
